Test results as given in patent US10051863B2, “Methods for apple scab control” (Valent U.S.A., Corporation, priority 2015, dated 2018).

Key:
[1] = tested on: apple scab caused by Venturia inaequalis; experiment: Example 1: bark spray on apple trees, apple leaf scab incidence, severity and % control; format: in vivo; parameters: Apple leaf scab severity: scale not given here; Apple Leaf scab incidence: unit not given here; conditions: for Apple Leaf scab incidence / Apple leaf % control / Apple leaf scab severity: bark spray
From the text: (§1) Applicant conducted the following study to determine the effect of a 3-(difluoromethyl)-1-methyl-N-[(3R)-1,1,3-trimethyl-2,3-dihydroinden-4-yl]pyrazole-4-carboxamide bark spray application on common fungal infections in apple and pear trees. Applications were made in late February with a CO2 charged, single-tip hand sprayer. Treatments were applied as a spray to the lower 3 to 4 feet of the tree trunks all the way around the tree. The tree trunks were sprayed until they were wet. If the treatments included a surfactant (see tables), then the treatments included a surfactant at a rate of 3 fl oz/gallon of the spray mix. The apple trees were at bed swell stage. The apple tree trunks were about 5 to 8 inches in diameter. The pear trees were at mid-petal fall with some green leaves emerging. The pear tree trunks were about 10 to 12 inches in diameter. The following rates in grams per active/cm diameter tree trunk are based on an average trunk diameter. A large amount of apple scab naturally developed during this growing season in this location. The effects of the treatments on apple leaf phytotoxicity, apple leaf apple scab incidence, apple leaf scab severity, and apple leaf percent control were observed 113 and 169 days after treatment (“DAT”). The results of this study are below in Tables 1 and 2.

apple trees [2] = experiment: Example 1: apple leaf phytotoxicity after bark spray; format: in vivo; parameters: scale not given here
From the text: as §1

Fabraea leaf spot = experiment: Example 1: bark spray on pear trees, Fabraea leaf spot control; format: in vivo; conditions: bark spray at mid-petal fall, at this rate and time of development
From the text: as §1

Alternaria leaf spot = experiment: Example 1: bark spray on pear trees, Alternaria leaf spot control; format: in vivo; conditions: bark spray at mid-petal fall, at this rate and time of development
From the text: as §1

[3] = tested on: apple scab caused by Venturia inaequalis; experiment: Example 2: apple tree trunk treatment, leaf and fruit pest incidence and severity; format: in vivo
From the text: (§2) In this study, the 3-(difluoromethyl)-1-methyl-N-[(3R)-1,1,3-trimethyl-2,3-dihydroinden-4-yl]pyrazole-4-carboxamide treatment was applied at the time of bud swell in mid March on apple tree trunks (treatment 5). The result of this treatment was compared to metconazole treatments applied when the apple trees were dormant (treatments 2 and 3), at the time of bud swell (treatment 4), and a foliar spray applied after petal fall (treatment 6). The control treatment (treatment 1) was applied during bud swell, as well. Four trees were subjected to each treatment.

apple trees [4] = experiment: Example 2: phytotoxicity on apple trees; format: in vivo
From the text: as §2

Water solubility = format: physicochemical
apple scab = conditions: background statement, cited from earlier work
[5] = 113 DAT, 0.003 grams active/cm trunk diameter + 2.3% V/V surfactant
[6] = 113 DAT, 0.03 grams active/cm trunk diameter + 2.3% V/V surfactant
[7] = 169 DAT, 0.003 grams active/cm trunk diameter + 2.3% V/V surfactant
[8] = 169 DAT, 0.03 grams active/cm trunk diameter + 2.3% V/V surfactant
[9] = first fruit pest, treatment 5, applied at the time of bud swell in mid March on apple tree trunks, 0.003 grams active/cm trunk diameter + 2.3% V/V surfactant
[10] = treatment 5, applied at the time of bud swell in mid March on apple tree trunks, 0.003 grams active/cm trunk diameter + 2.3% V/V surfactant
[11] = 113 DAT, 0.86 grams active/cm trunk diameter + 2.3% V/V surfactant
[12] = 113 DAT, 1.72 grams active/cm trunk diameter + 2.3% V/V surfactant
[13] = 113 DAT, 3.44 grams active/cm trunk diameter + 2.3% V/V surfactant
[14] = 169 DAT, 0.86 grams active/cm trunk diameter + 2.3% V/V surfactant
[15] = 169 DAT, 1.7 grams active/cm trunk diameter + 2.3% V/V surfactant
[16] = 169 DAT, 3.4 grams active/cm trunk diameter + 2.3% V/V surfactant
[17] = first fruit pest, treatment 2, applied when apple trees dormant, 1.72 grams active/cm trunk diameter + 2.3% V/V surfactant
[18] = first fruit pest, treatment 3, applied when apple trees dormant, 1.72 grams active/cm trunk diameter + 2.3% V/V surfactant
[19] = first fruit pest, treatment 4, applied at the time of bud swell, 1.72 grams active/cm trunk diameter + 2.3% V/V surfactant
[20] = first fruit pest, treatment 6, foliar spray applied after petal fall, 4 oz pr/A, surfactant not given
[21] = treatment 2, applied when apple trees dormant, 1.72 grams active/cm trunk diameter + 2.3% V/V surfactant
[22] = treatment 3, applied when apple trees dormant, 1.72 grams active/cm trunk diameter + 2.3% V/V surfactant
[23] = treatment 4, applied at the time of bud swell, 1.72 grams active/cm trunk diameter + 2.3% V/V surfactant
[24] = treatment 6, foliar spray applied after petal fall, 4 oz pr/A, surfactant not given
[25] = 113 DAT, 1.16 grams active/cm trunk diameter + 2.3% V/V surfactant
[26] = 169 DAT, 1.16 grams active/cm trunk diameter + 2.3% V/V surfactant

C[C@@H]1CC(C)(C)c2cccc(NC(=O)c3cn(C)nc3C(F)F)c21 [3-(Difluoromethyl)-1-methyl-N-[(3R)-1,1,3-trimethyl-2,3-dihydroinden-4-yl]pyrazole-4-carboxamide]
Apple Leaf scab incidence [1, 5]: 20 | Apple leaf % control [1, 5]: 88.3% | Apple leaf scab severity [1, 5]: 13.8 | Apple Leaf scab incidence [1, 6]: 23 | Apple leaf % control [1, 6]: 80% | Apple leaf scab severity [1, 6]: 16.3 | Apple Leaf scab incidence [1, 7]: 13.75 | Apple leaf % control [1, 7]: 43.8% | Apple leaf scab severity [1, 7]: 7 | Apple Leaf scab incidence [1, 8]: 13.75 | Apple leaf % control [1, 8]: 46.3% | Apple leaf scab severity [1, 8]: 4.5 | activity against apple scab caused by Venturia inaequalis ([1]; combined with a surfactant and applied as a bark spray, as compared to metconazole and propiconazole): excellent activity | Apple Leaf Phytotoxicity (apple trees [2]; [5]): 0 | Apple Leaf Phytotoxicity (apple trees [2]; [6]): 0 | Apple Leaf Phytotoxicity (apple trees [2]; [7]): 0 | Apple Leaf Phytotoxicity (apple trees [2]; [8]): 0 | control of Fabraea leaf spot (Fabraea leaf spot): failed to provide adequate control | control of Alternaria leaf spot (Alternaria leaf spot): failed to provide adequate control | Fruit pest incidence [3, 9]: 10.25 | Fruit pest severity [3, 9]: 0.638 | Fruit pest incidence [3, 10]: 0.33 | Fruit pest severity [3, 10]: 0.183 | Leaf pest incidence [3, 10]: 0.25 | Leaf pest severity [3, 10]: 0.3 | Phytotoxicity (apple trees [4]; [10]): 0 | water solubility (Water solubility): low water solubility

O=C1C2CC=CCC2C(=O)N1SC(Cl)(Cl)Cl (centres unmarked) [Captan, N-trichtoromethylthiocyclohexene-1,2-dicarboximide]
systemic control activity (apple scab): no systemic control activity | effectiveness against apple scab (apple scab; contact fungicide): effective against apple scab

CC1(C)CCC(Cc2ccc(Cl)cc2)C1(O)Cn1cncn1 (centres unmarked) [Metconazole + Surfactant, metconazole]
Apple Leaf scab incidence [1, 11]: 12.5 | Apple leaf % control [1, 11]: 80% | Apple leaf scab severity [1, 11]: 10 | Apple Leaf scab incidence [1, 12]: 18 | Apple leaf % control [1, 12]: 68.8% | Apple leaf scab severity [1, 12]: 18.3 | Apple Leaf scab incidence [1, 13]: 11.25 | Apple leaf % control [1, 13]: 80% | Apple leaf scab severity [1, 13]: 13.3 | Apple Leaf scab incidence [1, 14]: 18.88 | Apple leaf % control [1, 14]: 31.3% | Apple leaf scab severity [1, 14]: 4.25 | Apple Leaf scab incidence [1, 15]: 15.5 | Apple leaf % control [1, 15]: 27.5% | Apple leaf scab severity [1, 15]: 4.75 | Apple Leaf scab incidence [1, 16]: 7.25 | Apple leaf % control [1, 16]: 62.5% | Apple leaf scab severity [1, 16]: 2.75 | Apple Leaf Phytotoxicity (apple trees [2]; [11]): 0 | Apple Leaf Phytotoxicity (apple trees [2]; [12]): 0 | Apple Leaf Phytotoxicity (apple trees [2]; [13]): 0 | Apple Leaf Phytotoxicity (apple trees [2]; [14]): 0 | Apple Leaf Phytotoxicity (apple trees [2]; [15]): 0 | Apple Leaf Phytotoxicity (apple trees [2]; [16]): 0 | Fruit pest incidence [3, 17]: 33.75 | Fruit pest severity [3, 17]: 2.25 | Fruit pest incidence [3, 18]: 6.67 | Fruit pest severity [3, 18]: 0.333 | Fruit pest incidence [3, 19]: 14.00 | Fruit pest severity [3, 19]: 1.125 | Fruit pest incidence [3, 20]: 2.75 | Fruit pest severity [3, 20]: 0.263 | Fruit pest incidence [3, 21]: 45.0 | Fruit pest severity [3, 21]: 3.0 | Leaf pest incidence [3, 21]: 1.875 | Leaf pest severity [3, 21]: 5.0 | Fruit pest incidence [3, 22]: 10.0 | Fruit pest severity [3, 22]: 0.5 | Leaf pest incidence [3, 22]: 1.000 | Leaf pest severity [3, 22]: 1.7 | Fruit pest incidence [3, 23]: 18.67 | Fruit pest severity [3, 23]: 1.5 | Leaf pest incidence [3, 23]: 0.140 | Leaf pest severity [3, 23]: 2.0 | Fruit pest incidence [3, 24]: 3.67 | Fruit pest severity [3, 24]: 0.350 | Leaf pest incidence [3, 24]: 0.125 | Leaf pest severity [3, 24]: 0.8 | Phytotoxicity (apple trees [4]; [21]): 0 | Phytotoxicity (apple trees [4]; [22]): 0 | Phytotoxicity (apple trees [4]; [23]): 0 | Phytotoxicity (apple trees [4]; [24]): 0

CCCC1COC(Cn2cncn2)(c2ccc(Cl)cc2Cl)O1 (centres unmarked) [Propiconazole + Surfactant, propiconazole]
Apple Leaf scab incidence [1, 25]: 18.78 | Apple leaf % control [1, 25]: 68.3% | Apple leaf scab severity [1, 25]: 8.3 | Apple Leaf scab incidence [1, 26]: 13.38 | Apple leaf % control [1, 26]: 36.3% | Apple leaf scab severity [1, 26]: 4.63 | Apple Leaf Phytotoxicity (apple trees [2]; [25]): 0 | Apple Leaf Phytotoxicity (apple trees [2]; [26]): 0
